# Literature values in US20130071871A1, “ENZYMATIC DETERMINATION OF LITHIUM IONS USING PHOSPHOGLUCOMUTASE” (SPECIALTY ASSAYS, INC., priority 2011, published 2013).
smiles,measurement,setting,value
[Li] [Lithium],highly toxic level,"level chosen for the elevated lithium standard, well above the therapeutic range",~3 mmol/L
same,"serum level too high, severe toxic side effects can occur",serum,> 1200 µM
